Results from PubChem BioAssay AID330 (DTP/NCI, 2004).
Where “and” joins values, the source holds several entries; their conditions need not be identical. Equal entries are not always repeated. Inconclusive results and toxic doses are left out. How the source made its calls: active means survival T/C of 150% or more; inactive means T/C below 125% in these data.

Tested on: P388 leukemia ip, CD2F1 mice, survival T/C
Experiment: NCI In Vivo Anticancer Drug Screen. Data for tumor model P388 Leukemia (intraperitoneal) in CD2F1 (CDF1) mice
Conditions: endpoint: median survival time, higher = longer survival
How it was run: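 Mice carrying the transplanted tumor received test compound or vehicle. Survival was recorded in each group, and the value is the treated-group measurement divided by that of the vehicle-treated control group.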

[1] = dose: 100.0 mg/kg/injection, schedule: Q01DX001 (ip), vehicle: saline with Tween-80
[2] = dose: 200.0 mg/kg/injection, schedule: Q01DX001 (ip), vehicle: saline with Tween-80
[3] = dose: 60.0 mg/kg/injection, schedule: Q01DX005 (ip), vehicle: saline with Tween-80
[4] = dose: 120.0 mg/kg/injection, schedule: Q01DX005 (ip), vehicle: saline with Tween-80
[5] = dose: 240.0 mg/kg/injection, schedule: Q01DX005 (ip), vehicle: saline with Tween-80
[6] = dose: 50.0 mg/kg/injection, schedule: Q01DX009 (ip), vehicle: Klucel (hydroxypropylcellulose) (HPC)
[7] = dose: 100.0 mg/kg/injection, schedule: Q01DX009 (ip), vehicle: Klucel (hydroxypropylcellulose) (HPC)
[8] = dose: 200.0 mg/kg/injection, schedule: Q01DX009 (ip), vehicle: Klucel (hydroxypropylcellulose) (HPC)
[9] = dose: 25.0 mg/kg/injection, schedule: Q01DX009 (ip), vehicle: saline with Tween-80
[10] = dose: 50.0 mg/kg/injection, schedule: Q01DX009 (ip), vehicle: saline with Tween-80
[11] = dose: 100.0 mg/kg/injection, schedule: Q01DX009 (ip), vehicle: saline with Tween-80
[12] = dose: 200.0 mg/kg/injection, schedule: Q01DX009 (ip), vehicle: saline with Tween-80
[13] = dose: 50.0 mg/kg/injection, schedule: Q01DX005 (ip), vehicle: saline with Tween-80
[14] = dose: 100.0 mg/kg/injection, schedule: Q01DX005 (ip), vehicle: saline with Tween-80
[15] = dose: 200.0 mg/kg/injection, schedule: Q01DX005 (ip), vehicle: saline with Tween-80
[16] = dose: 400.0 mg/kg/injection, schedule: Q01DX009 (ip), vehicle: Klucel (hydroxypropylcellulose) (HPC)

Measured: T/C

O=[N+]([O-])c1ccc(N/N=C(\CI)c2ccccc2)c([N+](=O)[O-])c1
inactive: dose: 75.0 mg/kg/injection, schedule: Q01DX001 (ip), vehicle: saline with Tween-80 105 % of control | dose: 150.0 mg/kg/injection, schedule: Q01DX001 (ip), vehicle: saline with Tween-80 105 % of control | dose: 300.0 mg/kg/injection, schedule: Q01DX001 (ip), vehicle: saline with Tween-80 120 % of control

Cc1cccnc1-n1c(N)cc(=O)[nH]c1=S
inactive: dose: 50.0 mg/kg/injection, schedule: Q01DX001 (ip), vehicle: saline with Tween-80 100 % of control | [1] 100 % of control | [2] 86 % of control

O=C1NC2C=CN(Cc3ccccc3)C=C2C(=O)N2CCCC12 (stereo unspecified)
inactive: [3] 101 % of control | [4] 101 % of control | [5] 97 % of control

Cc1cc(C)c2c(c1)sc1nncn12
inactive: [6] 118 % of control | [7] 94 % of control | [8] 92 % of control

O=C(SCc1oc2ccccc2c1O)c1ccccc1
inactive: dose: 12.5 mg/kg/injection, schedule: Q01DX009 (ip), vehicle: saline with Tween-80 103 % of control | [9] 104 % of control | [10] 112 % of control | [11] 94 % of control

c1ccc2sc(SNC3CCCCC3)nc2c1
inactive: dose: 25.0 mg/kg/injection, schedule: Q01DX009 (ip), vehicle: Klucel (hydroxypropylcellulose) (HPC) 103 % of control | dose: 25.0 mg/kg/injection, schedule: Q04DX002 (ip), vehicle: Klucel (hydroxypropylcellulose) (HPC) 94 % of control | [6] 104 % of control | dose: 50.0 mg/kg/injection, schedule: Q04DX002 (ip), vehicle: Klucel (hydroxypropylcellulose) (HPC) 95 % of control | [7] 100 % of control | dose: 100.0 mg/kg/injection, schedule: Q04DX002 (ip), vehicle: Klucel (hydroxypropylcellulose) (HPC) 94 % of control | dose: 100.0 mg/kg/injection, schedule: Q04DX002 (ip), vehicle: saline 101 % of control | [8] 101 % of control | dose: 200.0 mg/kg/injection, schedule: Q04DX002 (ip), vehicle: saline 109 % of control | dose: 400.0 mg/kg/injection, schedule: Q04DX002 (ip), vehicle: saline 113 % of control

CC12CC3CN(C(=O)c4ccccc4)CCC3CC1=Nc1ccccc12 (stereo unspecified)
inactive: dose: 25.0 mg/kg/injection, schedule: Q04DX002 (ip), vehicle: saline with Tween-80 100 % of control | dose: 50.0 mg/kg/injection, schedule: Q04DX002 (ip), vehicle: saline with Tween-80 103 % of control | dose: 100.0 mg/kg/injection, schedule: Q04DX002 (ip), vehicle: saline with Tween-80 94 % of control | dose: 200.0 mg/kg/injection, schedule: Q04DX002 (ip), vehicle: saline with Tween-80 86 % of control

Oc1ccc(Cl)cc1C1c2ccccc2Oc2ccccc21
inactive: [6] 115 % of control | [7] 108 % of control

CC(C)(C)OC(=O)NC(Cc1c[nH]c2ccccc12)C(=O)ON1C(=O)CCC1=O (stereo unspecified)
inactive: [9] 97 % of control | [10] 108 % of control | [11] 110 % of control | [12] 105 % of control

c1ccc2c(c1)Nc1ccc(CN3CCOCC3)cc1S2
inactive: dose: 60.0 mg/kg/injection, schedule: Q01DX005 (ip), vehicle: Klucel (hydroxypropylcellulose) (HPC) 104 % of control | dose: 120.0 mg/kg/injection, schedule: Q01DX005 (ip), vehicle: Klucel (hydroxypropylcellulose) (HPC) 97 % of control | dose: 240.0 mg/kg/injection, schedule: Q01DX005 (ip), vehicle: Klucel (hydroxypropylcellulose) (HPC) 92 % of control

Cc1ccc(-c2nc3c(C)nc(-c4ccccc4)nc3n2Nc2ccccc2)cc1
inactive: [13] 94 % of control | [14] 90 % of control | [15] 91 % of control

C[C@]12CCC(=O)C(O)=C1CC[C@@H]1[C@@H]2CC[C@@]2(C)[C@H]1CC[C@]2(C)O
inactive: [9] 92 % of control | dose: 25.0 mg/kg/injection, schedule: Q04DX003 (ip), vehicle: saline with Tween-80 100 % of control | [10] 100 % of control | dose: 50.0 mg/kg/injection, schedule: Q04DX003 (ip), vehicle: saline with Tween-80 105 % of control | [11] 98 % of control | dose: 100.0 mg/kg/injection, schedule: Q04DX003 (ip), vehicle: saline with Tween-80 101 % of control | [12] 101 % of control | dose: 200.0 mg/kg/injection, schedule: Q04DX003 (ip), vehicle: saline with Tween-80 105 % of control

Nc1nc2ccc(NCc3ccc(C(=O)NC(CCC(=O)O)C(=O)O)cc3)cc2c(=O)[nH]1 (stereo unspecified)
inactive: dose: 6.25 mg/kg/injection, schedule: Q01DX005 (ip), vehicle: saline with Tween-80 108 % of control | dose: 12.5 mg/kg/injection, schedule: Q01DX005 (ip), vehicle: saline with Tween-80 108 % of control | dose: 25.0 mg/kg/injection, schedule: Q01DX005 (ip), vehicle: saline with Tween-80 103 % of control and 108 % of control | [13] 113 % of control and 117 % of control

Cn1nnc2c1CN=CN2
inactive: dose: 50.0 mg/kg/injection, schedule: Q01DX009 (ip), vehicle: saline 117 % of control | dose: 100.0 mg/kg/injection, schedule: Q01DX009 (ip), vehicle: saline 103 % of control | dose: 200.0 mg/kg/injection, schedule: Q01DX009 (ip), vehicle: saline 112 % of control

C/C(=N\N=c1\sc2ccccc2n1CC(=O)O)c1ccc(C)cc1
inactive: [1] 102 % of control | [2] 106 % of control | dose: 400.0 mg/kg/injection, schedule: Q01DX001 (ip), vehicle: saline with Tween-80 101 % of control

CN(C)C(=S)S
inactive: [6] 102 % of control | [7] 100 % of control | [8] 105 % of control | [16] 114 % of control

CC1(Cc2ccccc2)NC(=O)NC1=O (stereo unspecified)
inactive: [6] 100 % of control | [7] 104 % of control | [8] 105 % of control

Cc1ccc(C(C)C)c(OC(=O)Nc2ccc(Cl)cc2)c1
inactive: [6] 100 % of control | [7] 87 % of control | [8] 95 % of control | [16] 92 % of control

CCOCC1OCCCO1
inactive: dose: 60.0 mg/kg/injection, schedule: Q01DX005 (ip), vehicle: saline 104 % of control | dose: 120.0 mg/kg/injection, schedule: Q01DX005 (ip), vehicle: saline 103 % of control | dose: 240.0 mg/kg/injection, schedule: Q01DX005 (ip), vehicle: saline 103 % of control

CCOC(=O)CC(=O)c1sc(Nc2ccccc2)c(C(N)=O)c1N
inactive: [13] 100 % of control | [14] 94 % of control | [15] 94 % of control

COc1ccc(-c2c(C(=O)O)oc3cc(O)ccc3c2=O)cc1OC
inactive: [3] 99 % of control | [4] 97 % of control | [5] 96 % of control

COc1ccc2nc3cc(Cl)ccc3c(Nc3ccc(S(=O)(=O)Nc4nccs4)cc3)c2c1
inactive: [13] 94 % of control | [14] 105 % of control | [15] 97 % of control

CCCCCCCCCCCCCCCCN(O)C(=O)c1cnc[nH]1
inactive: dose: 100.0 mg/kg/injection, schedule: Q04DX003 (ip), vehicle: Klucel (hydroxypropylcellulose) (HPC) 99 % of control | dose: 200.0 mg/kg/injection, schedule: Q04DX003 (ip), vehicle: Klucel (hydroxypropylcellulose) (HPC) 101 % of control | dose: 400.0 mg/kg/injection, schedule: Q04DX003 (ip), vehicle: Klucel (hydroxypropylcellulose) (HPC) 97 % of control
